Like-named read-outs stand apart in the source and are kept apart here.
Legend:
[1] = target: T1, ER (Homo sapiens, UniProt P03372); experiment: Degradation activities on ER (ELISA) in T47D breast cancer cells; type: cell-based; details: T47D cells, 24 h, ELISA; for DC50: concentration required to degrade 50% of the target protein; for Dmax: maximum percentage of target protein degraded
T1 construct: T47D breast cancer cells were subcultured in cell culture medium; endogenous in cells; host or cells: T47D breast cancer cells
T1 sequence (P03372 1-595): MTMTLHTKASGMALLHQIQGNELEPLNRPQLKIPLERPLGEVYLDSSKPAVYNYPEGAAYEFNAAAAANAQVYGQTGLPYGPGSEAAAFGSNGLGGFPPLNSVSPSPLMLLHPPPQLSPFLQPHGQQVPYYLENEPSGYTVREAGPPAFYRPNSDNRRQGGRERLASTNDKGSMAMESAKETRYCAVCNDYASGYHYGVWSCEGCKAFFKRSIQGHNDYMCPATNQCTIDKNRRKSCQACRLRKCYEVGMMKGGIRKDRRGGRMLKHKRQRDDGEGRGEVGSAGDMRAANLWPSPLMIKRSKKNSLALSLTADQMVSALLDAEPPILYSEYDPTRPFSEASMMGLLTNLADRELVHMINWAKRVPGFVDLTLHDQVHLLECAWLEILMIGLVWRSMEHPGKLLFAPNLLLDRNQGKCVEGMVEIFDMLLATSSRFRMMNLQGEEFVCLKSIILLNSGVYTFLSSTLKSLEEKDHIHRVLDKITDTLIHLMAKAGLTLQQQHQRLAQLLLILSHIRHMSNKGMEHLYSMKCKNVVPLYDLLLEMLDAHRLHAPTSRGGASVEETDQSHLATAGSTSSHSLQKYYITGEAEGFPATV
Method in brief: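 T47D cells were seeded at 2.5×10^4/well, grown 3 days at 37 °C, 5% CO2, then exposed 24 h to compound at 100, 25, 6.25, 1.56, 0.39 and […] nM (final). ER protein was quantified by sandwich ELISA with HRP/TMB read at 450 nm, and DC50 and Dmax came from dose-response fits.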

[2] = target: T1, ER; experiment: Degradation activities on ER (Western blotting) in T47D breast cancer cells; type: cell-based; details: Western blot; for Percentage reduction of ER: 24 h
Experimental: T47D breast cancer cells were subcultured in cell culture medium, and the cells in good growth condition were seeded into 6-well plate at 2 mL/well, with 2.5×10^5 cells per well. The cells were incubated overnight in a 37° C. incubator under 5% CO2. The drug was prepared into 10 mM stock solution with dimethyl sulfoxide (DMSO). Prior to use, the stock solution was diluted with DMSO in a ratio of 1:3. […] of the diluted compound was added to the cell culture wells (to ensure a DMSO concentration of 0.1% in the culture system), and each concentration was repeated twice. The plate were gently shaken to mix. Additionally, the negative control wells (containing equal amount of DMSO) and the positive control wells were set up. After 24 hours of culture, the cells were lysed with RIPA cell lysis buffer to extract proteins, and the protein concentration was measured using a BCA kit. The protein loading buffer (5×) was added, and the plate was heated at 100° C. for 5 min. Then, the sample was stored at −20° C. […] of protein collected from each well was loaded onto a polyacrylamide gel for electrophoresis. The protein is transferred from the polyacrylamide gel to a PVDF membrane, blocked with 5% skim milk at room temperature for 1 h, and incubated overnight at 4° C. with primary antibodies Anti-ERα rabbit mAb (CST, Cat #: 8644S) and Anti-GAPDH rabbit mAb (CST, Cat #: 2118L). The membrane was washed three times with TBST solution, with 10 min for each time. The secondary antibody (horseradish peroxidase-labeled goat anti-rabbit IgG) was incubated at room temperature for 2 h, and then the membrane was washed three times with TBST solution, with 10 min for each time. Finally, ECL chromogenic solution was added for color development, and an automatic chemiluminescence instrument was used to take pictures. Images were collected and analyzed.
The degradation activities of the compounds according to the present invention towards ER, as tested by western blotting, are presented in Table 2

[3] = tested on: MCF-7 breast cancer cells; experiment: Inhibition of proliferation of MCF-7 breast cancer cells (agarose culture, CellTiter-Glo 3D); type: cell-based; details: MCF-7 cells, 15 days of cultivation, read-out: IC50
[4] = Pharmacokinetics in female ICR mice; details: plasma; for AUCinf (μg*h/mL) / T1/2 (h) / AUC(0-inf): oral administration 3 mg/kg, female ICR mice; for half-life / AUC(0-inf): female, ICR, mouse, po; for AUC(0-inf): AUCinf (μg*h/mL)
Experimental: Pharmacokinetic experimental steps: A suitable amount of compound to be administered was weighed, and after the final volume required was calculated, a drug solution with corresponding concentration was prepared using the medium (DMSO/HS-15/Tween 80/D5W (5:5:2:88, v/v/v/v)). For intravenous administration, each drug was administered to 9 animals (female ICR mice, provided by Chengdu Dossy Experimental Animal Co., Ltd.) at a dose of 1 mg/kg (drug volume of 10 mL/kg, drug concentration of 0.1 mg/mL). After administration, samples were alternately collected from three animals of each group at time points of 5 min, 15 min, 30 min, 1 h, 2 h, 4 h, 8 h, 12 h, and 24 h. For oral gavage, each drug was administered to 9 animals (female ICR mice) at a dose of 3 mg/kg (drug volume of 10 mL/kg, drug concentration of 0.3 mg/mL). After administration, samples are alternately collected from three animals of each group at time points of 15 min, 30 min, 1 h, 2 h, 4 h, 6 h, 8 h, 12 h, and 24 h. The samples were anticoagulated with EDTA-K2 and centrifuged at 4° C. for 5 min to separate the plasma. The plasma samples were vortexed and mixed. A suitable amount of internal standard working solution was added to the 96-well plate containing samples used for plotting standard curve, samples used for quality control, or samples to be tested; A suitable amount of methanol was added to the blank sample, vortexed and mixed thoroughly, and then centrifuged for 15 min before the supernatant was collected and injected to LC-MS/MS for analysis. The plasma concentration at each time point was used to calculate the main pharmacokinetic parameters using the Winnolin 8.3 non-compartmental model.

Row | Compound | DC50 [1] | Dmax ([1]; read-out: Dmax) | IC50 ([3]; Homo sapiens, MCF7, 360 h) | Percentage reduction of ER ([2]; compound concentration 1 nM) | also measured
1 | O=C1CCC(N2Cc3cc(N4CC5(CCN(CC6CCN(c7ccc([C@@H]8c9ccc(O)cc9OC[C@@H]8c8c(F)cccc8F)cc7)CC6)CC5)C4)ccc3C2=O)C(=O)N1 (stereo partly drawn) [Example 73, 3-(5-(7-((1-(4-((3S,4R)-3-(2,6-difluorophenyl)-7-hydroxychroman-4-yl)phenyl)piperidin-4-yl)methyl)-2,7-diazaspiro[3.5]nonane-2-yl)-1-oxoisoindol-2-yl)piperidin-2,6-dione] |  |  |  |  | Dmax [1]: B (B: 75-50%); T1/2 (h) [4]: A (A: >3.5 h); AUCinf (μg*h/mL) ([4]; 3 mg/kg): B (B: 1.4-2.5 μg*h/mL); IC50 [3]: < 10 nM
2 | O=C1CCC(N2C(=O)c3ccc(N4CC5(CCN(CC6CCN(c7ccc([C@@H]8c9ccc(O)cc9OC[C@@H]8c8ccccc8)cc7)CC6)CC5)C4)cc3C2=O)C(=O)N1 (stereo partly drawn) [Example 81, 2-(2,6-dioxopiperidin-3-yl)-5-(7-((1-(4-((3S,4R)-7-hydroxyl-3-phenylchroman-4-yl)phenyl)piperidin-4-yl)methyl)-2,7-diazaspiro[3.5]nonane-2-yl)isoinodolin-1,3-dione] | 10 to 50 nM | 50 to 75% | 11 to 50 nM |  | ER degradation activity (in words) [2]: good ER degradation activity; Percentage reduction of ER ([2]; compound concentration 10 nM): 82%
3 | O=C1CCC(N2Cc3cc(N4CCC5(CC4)CN(CC4CCN(c6ccc([C@@H]7c8ccc(O)cc8OC[C@@H]7c7ccccc7)cc6)CC4)C5)ccc3C2=O)C(=O)N1 (stereo partly drawn) [Example 58, 3-(5-(2-((1-(4-((3S,4R)-7-hydroxyl-3-phenyl-chroman-4-yl)phenyl)piperidin-4-yl)methyl)-2,7-diazaspiro[3.5]nonan-7-yl)-1-oxoisoinodolin-2-yl)piperidin-2,6-dione] |  |  | < 10 nM | 76% | 
4 | O=C1CCC(N2Cc3cc(N4CC5(CCN(CC6CCN(c7ccc([C@@H]8c9ccc(O)cc9OC[C@@H]8c8c(F)cccc8F)cc7F)CC6)CC5)C4)ccc3C2=O)C(=O)N1 (stereo partly drawn) [Example 70, 3-(5-(7-((1-(4-((3S,4R)-3-(2,6-difluorophenyl)-7-hydroxychroman-4-yl)-2-fluorophenyl)piperidin-4-yl)methyl)-2,7-diazaspiro[3.5]nonane-2-yl)-1-oxoisoinodolin-2-yl)piperidin-2,6-dione] | < 10 nM |  |  |  | Dmax [1]: B (B: 75-50%); AUCinf (μg*h/mL) [4]: A (A: > 2.5 μg*h/mL); T1/2 (h) [4]: A (A: >3.5 h); IC50 [3]: < 10 nM
5 | O=C1CCC(N2Cc3cc(N4CC5(CN(CC6CCN(c7ccc([C@@H]8c9ccc(O)cc9OC[C@@H]8c8ccccc8)cc7)CC6)C5)C4)ccc3C2=O)C(=O)N1 (stereo partly drawn) [Example 57, 3-(5-(6-((1-(4-((3S,4R)-7-hydroxyl-3-phenyl-chroman-4-yl)phenyl)piperidin-4-yl)methyl)-2,6-diazaspiro[3.3]heptan-2-yl)-1-oxoisoinodolin-2-yl)piperidin-2,6-one] |  |  | < 10 nM | 77% | 
6 | O=C1CCC(N2Cc3cc(N4CC5CN(CC6CCN(c7ccc([C@@H]8c9ccc(O)cc9OC[C@@H]8c8ccccc8)cc7)CC6)CC5C4)ccc3C2=O)C(=O)N1 (stereo partly drawn) [Example 83, 3-(5-(5-((1-(4-((3S, 4R)-7-hydroxyl-3-phenylchroman-4-yl)phenyl)piperidin-4-yl)methyl)hexahydropyrrolo[3,4-c]pyrrole-2(1H)-yl)-1-oxoisoinodolin-2-yl)piperidin-2,6-dione] |  |  | < 10 nM | 87% | 

Continued, in another order:

Row | DC50 [1] | Dmax ([1]; read-out: Dmax) | IC50 ([3]; Homo sapiens, MCF7, 360 h) | Percentage reduction of ER ([2]; compound concentration 1 nM) | Compound | also measured
7 | < 10 nM | 50 to 75% | < 10 nM |  | O=C1CCC(N2Cc3cc(N4CC5(CCN(CC6CCN(c7ccc([C@@H]8c9ccc(O)cc9OC[C@@H]8c8ccccc8)cc7F)CC6)CC5)C4)ccc3C2=O)C(=O)N1 (stereo partly drawn) [Example 88, 3-(5-(7-((1-(2-fluoro-4-(cis-7-hydroxyl-3-phenylchroman-4-yl)phenyl)piperidin-4-yl)methyl)-2,7-diazaspiro[3.5]nonane-2-yl)-1-oxoisoinodolin-2-yl)piperidin-2,6-dione] | Percentage reduction of ER ([2]; compound concentration 10 nM): 47%
8 | < 10 nM | 50 to 75% | < 10 nM | 62% | O=C1CCC(N2Cc3cc(N4CC5(CCN(CC6CCN(c7ccc([C@@H]8c9ccc(O)cc9OC[C@@H]8c8ccccc8F)cc7)CC6)CC5)C4)ccc3C2=O)C(=O)N1 (stereo partly shown) [Example 30] | AUCinf (μg*h/mL) [4]: B (B: 1.4-2.5 μg*h/mL); T1/2 (h) [4]: A (A: >3.5 h)
9 | < 10 nM | 50 to 75% | < 10 nM |  | O=C1CCC(N2Cc3cc(N4CCC(CN5CC6(CCN(c7ccc([C@@H]8c9ccc(O)cc9CC[C@@H]8c8ccccc8)cc7)CC6)C5)CC4)ccc3C2=O)C(=O)N1 (stereo partly shown) [Example 11] | Percentage reduction of ER ([2]; compound concentration 10 nM): 84%
10 | < 10 nM | 50 to 75% | < 10 nM | 70% | O=C1CCC(N2Cc3cc(N4CC5(CCN(CC6CCN(c7ccc([C@@H]8c9ccc(O)cc9OC[C@@H]8c8ccccc8)cc7)CC6)CC5)C4)ccc3C2=O)C(=O)N1 (stereo partly drawn) [Example 79, 3-(5-(7-((1-(4-((3S,4R)-7-hydroxyl-3-phenylchroman-4-yl)phenyl)piperidin-4-yl)methyl)-2,7-diazaspiro[3.5]nonane-2-yl)-1-oxoisoinodolin-2-yl)piperidin-2,6-dione] | 
11 | < 10 nM | 50 to 75% | < 10 nM | 56% | O=C1CCC(N2Cc3cc(N4CC5CN(CC6CCN(c7ccc([C@@H]8c9ccc(O)cc9CC[C@@H]8c8ccccc8)cc7)CC6)CC5C4)ccc3C2=O)C(=O)N1 (stereo partly drawn) [Example 26, 3-(5-(5-((1-(4-((1R,2S)-6-hydroxyl-2-phenyl-1,2,3,4-tetrahydronaphthalen-1-yl)phenyl)piperidin-4-yl)methyl)hexahydropyrrolo[3,4-c]pyrrole-2(1H)-yl)-1-oxoisoinodolin-2-yl)piperidin-2,6-dione] | 
12 | < 10 nM | 50 to 75% | 11 to 50 nM |  | O=C1CCC(N2Cc3cc(N4CC5(CCN(CC6CCN(c7ccc([C@@H]8c9ccc(O)cc9OC[C@@H]8c8c(F)cccc8F)cc7F)CC6)CC5)C4)ccc3C2=O)C(=O)N1 (stereo partly shown) [Example 65, 3-(5-(7-((1-(4-(3-(2,6-difluorophenyl)-7-hydroxyl-chroman-4-yl)-2-fluorophenyl)piperidin-4-yl)methyl)-2,7-diazaspiro[3.5]nonane-2-yl)-1-oxoisoinodolin-2-yl)piperidin-2,6-dione] | half-life ([4]; 3 mg/kg): > 3.5 h; AUC(0-inf) ([4]; 3 mg/kg): > 2500 ng·h/mL
13 | < 10 nM |  |  | 53% | 3-(5-(7-((1-(2,6-difluoro-4-((3,4-cis)-3-(2-fluorophenyl)-7-hydroxychroman-4-yl)phenyl)piperidin-4-yl)methyl)-2,7-diazaspiro[3.5]nonane-2-yl)-1-oxoisoinodolin-2-yl)piperidin-2,6-dione [Example 33] | Dmax [1]: B (B: 75-50%); IC50 [3]: < 10 nM
14 | < 10 nM | 50 to 75% |  |  | O=C1CCC(N2Cc3cc(N4CC5(CCN(CC6CCN(c7c(F)cc([C@@H]8c9ccc(O)cc9OC[C@@H]8c8c(F)cccc8F)cc7F)CC6)CC5)C4)ccc3C2=O)C(=O)N1 (stereo partly shown) [Example 37] | half-life ([4]; 3 mg/kg): > 3.5 h; AUC(0-inf) ([4]; 3 mg/kg): > 2500 ng·h/mL

Reference: patent US20260258039A1, “AROMATIC COMPOUND, METHOD FOR PREPARING SAME, AND USE THEREOF IN PREPARATION OF ESTROGEN RECEPTOR DEGRADER” (Hinova Pharmaceuticals Inc., priority 2022, published 2026)
